Reference: ChEMBL document CHEMBL4043065, “Simplifying nature: Towards the design of broad spectrum kinetoplastid inhibitors, inspired by acetogenins” (Bioorg Med Chem, 2017)
pEC50: −log10 of the molar value.

How the values were obtained:
[1] = tested on: Trypanosoma brucei; experiment: Trypanocidal activity against Trypanosoma brucei blood stream forms; type: functional
[2] = tested on: HeLa; experiment: Cytotoxicity against human HeLa cells; type: cell-based
[3] = tested on: Leishmania major; experiment: Antileishmanial activity against Leishmania major MHOM/IL/80/Friedlin promastigotes after 72 hrs by Alamar blue assay; type: functional
[4] = tested on: Trypanosoma cruzi; experiment: Trypanocidal activity against Trypanosoma cruzi strain CL Brener epimastogoes after 64 hrs by Alamar blue assay; type: functional
[5] = tested on: Trypanosoma brucei; experiment: Trypanocidal activity against Trypanosoma brucei 427 procyclic forms after 64 hrs by Alamar blue assay; type: functional; settings: Trypanosoma brucei, 427, 64 h
[6] = tested on: HeLa; experiment: Cytotoxicity against human HeLa cells after 64 hrs by Alamar blue assay; type: cell-based
[7] = tested on: Vero; experiment: Cytotoxicity against African green monkey Vero cells after 72 hrs by Alamar blue assay; type: cell-based; settings: Chlorocebus sabaeus
[8] = tested on: Trypanosoma brucei; experiment: Trypanocidal activity against Trypanosoma brucei 427 blood stream forms after 64 hrs by Alamar blue assay; type: functional; settings: Trypanosoma brucei, 427, 64 h

Structure (SMILES)	pEC50 [1]	pEC50 [2]	pEC50 [3]	pEC50 [4]	pEC50 [5]	pEC50 [6]	pEC50 [7]	pEC50 [8]
C[C@H]1C=C(CCCCCCCCCC[C@H]2CCC[C@@H](c3cn(C[C@@H]4CCC[C@H](CCCCOCc5ccccc5)O4)nn3)O2)C(=O)O1	5.28	5.68	–	–	–	–	–	–
O=C(NCCCCCCOCCCC[C@H]1CCC[C@@H](Cn2cc([C@@H]3CCC[C@H](CCCCOCc4ccccc4)O3)nn2)O1)c1cocn1	–	–	4.67	4.74	5.00	4.66	4.58	5.08
Cc1nc(C(=O)NCCCCCCOCCCC[C@H]2CCC[C@@H](Cn3cc([C@@H]4CCC[C@H](CCCCOCc5ccccc5)O4)nn3)O2)co1	–	–	4.67	4.92	5.15	4.70	4.87	5.10
Cn1nccc1C(=O)NCCCCCCOCCCC[C@H]1CCC[C@@H](Cn2cc([C@@H]3CCC[C@H](CCCCOCc4ccccc4)O3)nn2)O1	–	–	4.54	4.09	5.26	< 4.00	–	5.21
Cc1cc(C(=O)NCCCCCCOCCCC[C@H]2CCC[C@@H](Cn3cc([C@@H]4CCC[C@H](CCCCOCc5ccccc5)O4)nn3)O2)oc1C	–	–	4.14	3.87	5.41	< 4.00	–	5.34
c1ccc(COCCCCCCOCCCC[C@H]2CCC[C@@H](Cn3cc([C@@H]4CCC[C@H](CCCCOCc5ccccc5)O4)nn3)O2)cc1	–	–	3.39	< 3.30	4.54	< 4.70	–	5.37
NCCCCCCOCCCC[C@H]1CCC[C@@H](Cn2cc([C@@H]3CCC[C@H](CCCCOCc4ccccc4)O3)nn2)O1	–	–	4.72	4.78	5.04	5.09	–	5.24
Cc1ccoc1C(=O)NCCCCCCOCCCC[C@H]1CCC[C@@H](Cn2cc([C@@H]3CCC[C@H](CCCCOCc4ccccc4)O3)nn2)O1	–	–	4.17	< 3.30	5.60	3.95	–	5.33
O=C(NCCCCCCOCCCC[C@H]1CCC[C@@H](Cn2cc([C@@H]3CCC[C@H](CCCCOCc4ccccc4)O3)nn2)O1)c1ccco1	–	–	5.11	5.10	5.30	< 3.30	< 3.30	5.42
Cc1ccc(C(=O)NCCCCCCOCCCC[C@H]2CCC[C@@H](Cn3cc([C@@H]4CCC[C@H](CCCCOCc5ccccc5)O4)nn3)O2)o1	–	–	4.79	3.73	5.51	4.37	–	5.31 to 5.33
O=C(NCCCCCCOCCCC[C@H]1CCC[C@@H](Cn2cc([C@@H]3CCC[C@H](CCCCOCc4ccccc4)O3)nn2)O1)c1cscn1	–	–	4.66	4.90	5.24	< 4.00	–	5.24
Cn1cccc1C(=O)NCCCCCCOCCCC[C@H]1CCC[C@@H](Cn2cc([C@@H]3CCC[C@H](CCCCOCc4ccccc4)O3)nn2)O1	–	–	4.79	< 3.30	5.30	3.75	–	5.34
O=C(NCCCCCCOCCCC[C@H]1CCC[C@@H](Cn2cc([C@@H]3CCC[C@H](CCCCOCc4ccccc4)O3)nn2)O1)c1ccc([N+](=O)[O-])o1	–	–	4.95	5.51	7.00	6.42	5.35	7.43
O=C(NCCCCCCOCCCC[C@H]1CCC[C@@H](Cn2cc([C@@H]3CCC[C@H](CCCCOCc4ccccc4)O3)nn2)O1)c1ccc[nH]1	–	–	< 3.30	< 3.30	5.34	< 4.00	–	5.30
OCCCCCCOCCCC[C@H]1CCC[C@@H](Cn2cc([C@@H]3CCC[C@H](CCCCO)O3)nn2)O1	–	–	3.91	3.64	4.25	4.16 to 5.19	–	4.42
COCCCCCCNC(=O)c1ccc([N+](=O)[O-])o1	–	–	4.68	5.10	6.43	5.39	4.80	6.14
O=C(NCCCCCCOCCCC[C@H]1CCC[C@@H](Cn2cc([C@@H]3CCC[C@H](CCCCOCc4ccccc4)O3)nn2)O1)c1cccs1	–	–	< 3.30	< 3.30	5.32	< 3.30	–	5.29
O=C(NCCCCCCOCCCC[C@H]1CCC[C@@H](Cn2cc([C@@H]3CCC[C@H](CCCCOCc4ccccc4)O3)nn2)O1)c1ccoc1	–	–	4.82	< 3.30	5.27	< 3.30	< 3.30	5.41
COCCCCCCNC(=O)c1ccco1	–	–	< 3.30	< 3.30	3.91	< 3.30	–	3.95
O=C(NCCCCCCOCCCC[C@H]1CCC[C@@H](Cn2cc([C@@H]3CCC[C@H](CCCCOCc4ccccc4)O3)nn2)O1)c1ccsc1	–	–	4.82	< 3.30	5.30	< 3.30	< 3.30	5.24
COCCCCCCNC(=O)c1ccnn1C	–	–	< 3.30	< 3.30	4.32	< 3.60	–	3.97
CCCCCC[C@H]1CCC[C@@H](Cn2cc([C@@H]3CCC[C@H](CCCCCCCCCCC4=C[C@H](C)OC4=O)O3)nn2)O1	< 3.30	< 3.00	–	–	–	–	–	–
O=C(NCCCCCCOCCCC[C@H]1CCC[C@@H](Cn2cc([C@@H]3CCC[C@H](CCCCOCc4ccccc4)O3)nn2)O1)c1ccccc1	–	–	< 3.30	< 3.30	5.37	< 3.60	–	5.36
CCCCCC[C@H]1CCC[C@@H](Cn2cc([C@@H]3CCC[C@H](CCCCO)O3)nn2)O1	5.74	5.15	–	–	–	–	–	–
O=C(NCCCCCCOCCCC[C@H]1CCC[C@@H](Cn2cc([C@@H]3CCC[C@H](CCCCOCc4ccccc4)O3)nn2)O1)c1ccc(Cl)o1	–	–	< 3.30	< 3.30	5.42	< 3.30	–	5.35
OCCCCCCOCCCC[C@H]1CCC[C@@H](Cn2cc([C@@H]3CCC[C@H](CCCCOCc4ccccc4)O3)nn2)O1	–	–	4.91	4.56	5.42	4.67	–	5.46
